SMILES strings stand for the structures.

This note sets out measurements from US7714146B2, “Azulene-oxindole compounds as multiple-kinase inhibitors and useful as anticancer agents” (Industrial Technology Research Institute, priority 2006, dated 2010).

What all share (type): biochemical
Assay [1] has as its target T1, human c-KIT (Thr544-Val976) (Homo sapiens, UniProt P10721).
T1 construct: human c-KIT (Thr544-Val976); GST (N); purchased Cell Signaling Technology; host or cells: baculovirus expression system
As to the kind of experiment: c-KIT kinase assay (HTScan kit, DELFIA). As to conditions: for inhibition at 0.1 µM: compound at 0.1 μM, read-out: c-KIT 0.1 μM, % of inhibition relative to control; for inhibition at 1 µM: compound at 1 μM, read-out: c-KIT 1 μM, % of inhibition relative to control. Here is the method:
(§1) Compounds 1-100 were treated for their efficacy in inhibiting activities of FLT-3, c-KIT, KDR/Flk-1, PDGFR-beta, EGFR, and PKC kinases by biochemical DELFIA (Dissociation Enhanced Lanthanide FIA) assays according to the procedure described below. The assays were conducted by, Division of Cell Engineering, Biomedical Engineering Research Laboratories, Industrial Technology Research Institute, Bldg. 53, 195, sec. 4, Chung Hsing Rd. Chutung, Hsinchu, Taiwan 310, R.O.C.
(§2) The c-KIT assay was conducted following the protocol described in Protocol for HTScan® c-KIT Kinase Assay Kit (Cell Signaling Technology®). The assay was conducted under the following conditions: c-KIT source: The GST-c-KIT fusion protein was produced using a baculovirus expression system with a construct expressing human c-KIT (Thr544-Val976) with an amino-terminal GST tag, substrate: 1.5 μM This biotinylated peptide contains the residues surrounding Tyr-996 of KDR, vehicle: 1% DMSO, pre-incubation time/temperature: 5 minutes at room temperature, incubation time/temperature: 30 minutes at room temperature, incubation buffer: 60 mM HEPES pH 7.5, 5 mM MgCl2, 5 mM MnCl2, 3 μM Na3VO4, 1.25 mM DTT, 20 μM ATP, and quantitative method: DELFIA® Assay.

The target of assay [2] is T2, human FLT-3 (Arg571-Ser993) (Homo sapiens, UniProt P36888).
T2 construct: human FLT-3 (Arg571-Ser993); GST (N); purchased Cell Signaling Technology; host or cells: baculovirus expression system
T2 sequence (P36888 571-993): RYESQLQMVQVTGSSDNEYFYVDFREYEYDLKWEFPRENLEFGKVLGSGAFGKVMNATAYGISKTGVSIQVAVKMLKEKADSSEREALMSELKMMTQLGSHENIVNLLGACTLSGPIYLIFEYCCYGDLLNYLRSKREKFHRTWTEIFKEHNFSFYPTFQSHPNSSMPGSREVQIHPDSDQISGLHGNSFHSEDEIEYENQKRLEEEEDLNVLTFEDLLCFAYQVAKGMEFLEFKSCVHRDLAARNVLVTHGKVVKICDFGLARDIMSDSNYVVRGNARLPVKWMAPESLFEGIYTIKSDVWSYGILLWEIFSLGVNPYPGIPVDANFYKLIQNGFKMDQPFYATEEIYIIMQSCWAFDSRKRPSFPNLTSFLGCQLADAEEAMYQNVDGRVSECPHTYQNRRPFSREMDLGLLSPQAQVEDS
As to the kind of experiment: FLT-3 kinase assay (HTScan kit, DELFIA). As to conditions: for inhibition at 1 µM: compound at 1 μM, read-out: FLT-3 1 μM, % of inhibition relative to control; for inhibition at 0.1 µM: compound at 0.1 μM, read-out: FLT-3 0.1 μM, % of inhibition relative to control. Here is the method: as §1
as §2, with “FLT-3” for “c-KIT”, “GST-kinase” for “GST-c-KIT”, “FLT-3 (Arg571-Ser993) (GenBank accession No. NM_004119)” for “c-KIT (Thr544-Val976)”, “Gastrin Precursor Biotinylated Peptide (with Tyr87 as phosphorylation site),” for “This biotinylated peptide contains the residues surrounding Tyr-996 of KDR,”

In assay [3] the target is T3, human VEGFR-2 (Val789-Val1356) (Homo sapiens, UniProt P35968).
T3 construct: human VEGFR-2 (Val789-Val1356); GST (N); purchased Cell Signaling Technology; host or cells: baculovirus expression system
T3 sequence (P35968 789-1356): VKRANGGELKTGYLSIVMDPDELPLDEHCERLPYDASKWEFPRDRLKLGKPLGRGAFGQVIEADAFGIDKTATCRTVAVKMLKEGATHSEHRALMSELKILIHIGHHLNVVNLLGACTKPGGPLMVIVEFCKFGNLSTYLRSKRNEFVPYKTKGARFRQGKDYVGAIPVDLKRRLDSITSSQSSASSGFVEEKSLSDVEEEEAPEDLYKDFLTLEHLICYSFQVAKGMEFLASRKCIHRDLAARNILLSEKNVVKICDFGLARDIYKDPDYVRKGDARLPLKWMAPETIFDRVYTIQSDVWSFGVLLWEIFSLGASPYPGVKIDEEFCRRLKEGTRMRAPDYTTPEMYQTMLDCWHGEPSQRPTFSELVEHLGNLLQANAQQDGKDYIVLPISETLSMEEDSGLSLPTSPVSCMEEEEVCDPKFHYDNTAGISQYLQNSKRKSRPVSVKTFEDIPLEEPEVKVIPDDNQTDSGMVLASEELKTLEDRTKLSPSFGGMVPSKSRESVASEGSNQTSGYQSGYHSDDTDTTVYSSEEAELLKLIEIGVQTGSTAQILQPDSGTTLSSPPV
In words: KDR kinase assay (HTScan VEGFR-2 kit, DELFIA). As to conditions: for inhibition at 0.1 µM: compound at 0.1 μM, read-out: KDR 0.1 μM, % of inhibition relative to control; for inhibition at 1 µM: compound at 1 μM, read-out: KDR 1 μM, % of inhibition relative to control. Here is the method:
as §1
as §2, with “The KDR” for “The c-KIT”, “HTScan® VEGFR-2” for “HTScan® c-KIT”, “conditions: KDR” for “conditions: c-KIT”, “The GST-Kinase” for “The GST-c-KIT”, “human VEGFR-2 (Val789-Val1356) (GenBank Accession No. NM_002253)” for “human c-KIT (Thr544-Val976)”, “μM Gastrin Precursor Biotinylated Peptide (with Tyr87 as phosphorylation site),” for “μM This biotinylated peptide contains the residues surrounding Tyr-996 of KDR,”

T1 sequence (P10721 544-976): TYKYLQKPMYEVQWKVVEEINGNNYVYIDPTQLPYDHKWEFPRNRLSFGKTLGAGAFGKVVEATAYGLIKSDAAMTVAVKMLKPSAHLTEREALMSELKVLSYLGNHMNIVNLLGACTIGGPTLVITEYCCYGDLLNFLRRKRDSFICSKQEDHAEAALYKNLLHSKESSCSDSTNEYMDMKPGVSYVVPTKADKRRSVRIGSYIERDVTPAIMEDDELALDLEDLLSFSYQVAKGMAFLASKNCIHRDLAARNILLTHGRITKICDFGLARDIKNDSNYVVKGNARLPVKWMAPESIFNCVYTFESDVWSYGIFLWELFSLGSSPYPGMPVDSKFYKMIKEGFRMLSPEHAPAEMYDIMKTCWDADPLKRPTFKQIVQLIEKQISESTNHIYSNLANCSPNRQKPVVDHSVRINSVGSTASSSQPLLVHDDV

The inhibition is the relative decrease from the control value, in per cent. For the compound `Cc1cc(/C=C2/C(=O)N(C(c3ccccc3)c3ccccc3)c3ccccc32)c2c(C)ccc(C(C)C)cc1-2` [Compound 14, 1-Benzhydryl-3-(5-isopropyl-3,8-dimethyl-azulen-1-ylmethylene)-1,3-dihydro-indol-2-one], the results for the inhibition at 0.1 µM in assay [1] and in assay [3] were 31.5% and 17.1%, respectively. Further, the inhibition at 1 µM in assay [1] amounted to 31.5%; in assay [2], 6%; in assay [3], 69.2%.

As a reminder, the IC50 is the concentration needed to halve the response being measured. As to `CCN(CC)CCCOc1ccccc2c(C=C3C(=O)Nc4ccc(F)cc43)cc(C)c1-2` [Compound 90, 3-[4-(3-Diethylamino-propoxy)-3-methyl-azulen-1-ylmethylene]-5-fluoro-1,3-dihydro-indol-2-one], the inhibition at 0.1 µM in assay [1] is 83.2%; in assay [2] it was 33.9%. Also, the inhibition at 1 µM in assay [1] worked out at 83.2%; in assay [2] it was 85.5%; in assay [3] it was 32.8%. Moreover, the IC50 in assay [1] (read-out: c-KIT kinase inhibition (IC50)) was determined as 77.9 nM; in assay [2] (read-out: FLT-3 kinase inhibition (IC50)), 10.1 nM.

Consider `CNS(=O)(=O)c1ccc2c(c1)/C(=C\c1cc(C)c3c(OCCCN(C)C)ccccc1-3)C(=O)N2` [Compound 88, 3-[4-(3-Dimethylamino-propoxy)-3-methyl-azulen-1-ylmethylene]-2-oxo-2,3-dihydro-1H-indole-5-sulfonic acid methylamide], for which the inhibition at 0.1 µM was determined as 19.3% in assay [1] and 24.2% in assay [2]. Besides, the values for the inhibition at 1 µM in assay [1], in assay [2] and in assay [3] were 19.3%, 47.3% and 16.8%, respectively.

On to `Cc1cc(C=C2C(=O)Nc3ncccc32)c2ccccc(OCCCN(C)C)c1-2` [Compound 104, 3-(((3aZ,5Z,7E)-8-(3-(dimethylamino)propoxy)-1-methylazulen-3-yl)methylene)-1H-pyrrolo[2,3-b]pyridin-2(3H)-one], for which the inhibition at 0.1 µM worked out at 42.5% in assay [1], 14.6% in assay [2] and 30.1% in assay [3]. Also, the inhibition at 1 µM is 57.4% in assay [1], 44.8% in assay [2] and 88% in assay [3].

Regarding `O=C1Nc2ccc(F)cc2/C1=C/c1c(Br)c2cccccc-2c1Br` [Compound 61, 3-(1,3-Dibromo-azulen-2-ylmethylene)-5-fluoro-1,3-dihydro-indol-2-one], the inhibition at 0.1 µM turned out to be 30.5% in assay [1], 62.5% in assay [2] and 44.2% in assay [3]. For the same compound, the figures for the inhibition at 1 µM in assay [1], in assay [2] and in assay [3] were 30.5%, 42.5% and 52.6%, respectively.

`CN(C)Cc1cc(/C=C2/C(=O)Nc3ccc(F)cc32)c2cccccc1-2` [Compound 65, 3-(3-Dimethylaminomethyl-azulen-1-ylmethylene)-5-fluoro-1,3-dihydro-indol-2-one]: the inhibition at 0.1 µM was 51.3% in assay [1], 23.3% in assay [2] and 46.8% in assay [3]. In addition, the inhibition at 1 µM came out at 51.3% in assay [1], 30.9% in assay [2] and 46.9% in assay [3].

Consider `O=C1Nc2cc(Br)ccc2/C1=C\c1ccc2cccccc1-2` [Compound 28, 3-Azulen-1-ylmethylene-6-bromo-1,3-dihydro-indol-2-one], for which the values for the inhibition at 0.1 µM in assay [1] and in assay [2] were 6.8% and 1.9%, respectively. The inhibition at 1 µM in assay [1] worked out at 6.8%; in assay [2], 24.5%; in assay [3], 22.4%.

`Cc1cc(C=C2C(=O)Nc3cc(F)ccc32)c2ccccc(OCCCN(C)C)c1-2` [Compound 91, 3-[4-(3-Dimethylamino-propoxy)-3-methyl-azulen-1-ylmethylene]-6-fluoro-1,3-dihydro-indol-2-one]: the inhibition at 0.1 µM in assay [1] amounted to 56.5%; in assay [2], 15.2%; in assay [3], 1.1%. Besides, the figures for the inhibition at 1 µM in assay [1], in assay [2] and in assay [3] were 56.5%, 52.4% and 9.4%, respectively.
